Source: US9863937B2, “Fluorescent molecular rotors” (Agency for Science, Technology and Research, priority 2012, dated 2018)
Entries after “also recorded” stand apart in the source; their conditions may differ.

Legend:
MDM2 = MDM2 (Homo sapiens, UniProt Q00987); settings: unconjugated peptide, Table 9; ITC; read-out: Previously reported Kd value; cited from earlier work
[1] = target: p53 protein binding to DNA (Homo sapiens, UniProt P04637); test: Fluorescence change of DNA-bound rotor on addition of p53 protein
Sequence of p53 protein binding to DNA (P04637 whole entry): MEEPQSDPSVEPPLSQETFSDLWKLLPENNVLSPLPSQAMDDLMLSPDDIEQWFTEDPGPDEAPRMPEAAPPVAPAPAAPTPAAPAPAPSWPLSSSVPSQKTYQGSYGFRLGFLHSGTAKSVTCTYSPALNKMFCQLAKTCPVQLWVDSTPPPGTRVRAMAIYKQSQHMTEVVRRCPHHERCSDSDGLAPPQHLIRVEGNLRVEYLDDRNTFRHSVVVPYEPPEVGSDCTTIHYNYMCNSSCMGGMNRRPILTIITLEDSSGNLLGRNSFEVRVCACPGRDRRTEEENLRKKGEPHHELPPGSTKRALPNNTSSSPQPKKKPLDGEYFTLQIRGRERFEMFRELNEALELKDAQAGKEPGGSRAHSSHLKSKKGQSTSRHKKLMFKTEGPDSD
Protocol: For the third set with DNA and p53, 1×PBS buffer and p53 6× binding buffer were first added to the wells. Subsequently, rotor was added and DNA was added. The combined solutions were mixed in each well and allowed to incubate in the dark at room temperature for half an hour before p53 was added. The combined solutions were then allowed to incubate in the dark at room temperature for another half an hour before data on fluorescence intensity was gathered.
6× binding buffer consists: 150 mM sodium phosphate buffer, 600 uM KCl, 24 mM DTT.
(§1) Measurements were taken using Greiner 384 black flat-clear-bottom for 18 uL mixtures, Corning 96 flat-black half-area for 80 uL and 100 uL mixtures, and Tecan Infinite M-1000 Spectrophotometer.

[2] = system: p53 binding sequence duplex DNA; test: Rotor fluorescence with p53 binding sequence duplex DNA (intercalation); settings: FIG. 7
Protocol: For the first set with DNA only, 1×PBS buffer and p53 6× binding buffer were first added to the wells. Subsequently, rotor was added. Lastly, DNA was added. The combined solutions were mixed in each well and allowed to incubate in the dark at room temperature for, half an hour before data on fluorescence intensity was gathered.
as §1

streptavidin = streptavidin (Streptomyces avidinii, UniProt P22629); test: Fluorescence of rotor-biotin conjugate on addition of streptavidin; type: binding
Sequence of streptavidin (P22629 25-183, species assumed): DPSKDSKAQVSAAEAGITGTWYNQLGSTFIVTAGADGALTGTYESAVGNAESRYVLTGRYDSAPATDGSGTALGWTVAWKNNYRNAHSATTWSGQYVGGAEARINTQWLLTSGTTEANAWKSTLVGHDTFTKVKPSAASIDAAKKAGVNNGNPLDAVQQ
Protocol: FIG. 4a depicts the emission spectra of a CCVJ molecular rotor bound to biotin with Streptavidin. […] 40 μM of rotor-biotin conjugate was incubated for 15 min with 50 μg of streptavidin. Fluorescence emission spectrum was measured using an excitation wavelength (λex) of 433 nm.

plasmid DNA = test: Rotor fluorescence with plasmid DNA; type: binding; settings: 100 uM rotor, 5 ug plasmid DNA
Protocol: 100 uM of Sybr green, Pyrene or CCVJ rotors were each added to either 5 ug plasmid DNA, 5 ug DNA with 500 mM NaOH, or PBS buffer only. Resulting fluorescence for each reaction mixture were then compared across the respective filters (Sybr 497/520, Pyrene 376/530, Julolidine 433/505).

Sequence of MDM2 (Q00987 whole entry): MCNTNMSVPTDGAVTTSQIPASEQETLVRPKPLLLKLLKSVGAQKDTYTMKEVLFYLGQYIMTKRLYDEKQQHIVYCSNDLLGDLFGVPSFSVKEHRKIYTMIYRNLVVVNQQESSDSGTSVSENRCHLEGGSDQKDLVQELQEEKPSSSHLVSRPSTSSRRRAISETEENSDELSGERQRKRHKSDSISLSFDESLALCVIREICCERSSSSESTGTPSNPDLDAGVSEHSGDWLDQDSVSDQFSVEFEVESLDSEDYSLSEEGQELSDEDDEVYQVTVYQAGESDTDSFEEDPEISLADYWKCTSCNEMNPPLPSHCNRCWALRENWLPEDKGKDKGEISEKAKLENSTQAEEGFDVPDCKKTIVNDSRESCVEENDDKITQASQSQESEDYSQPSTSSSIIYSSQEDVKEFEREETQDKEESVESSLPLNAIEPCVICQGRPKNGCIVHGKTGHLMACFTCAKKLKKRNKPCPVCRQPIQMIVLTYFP

MPRFMDYWEGLNK [JP2]
Kd (MDM2): 240 ± 53.8 nM

CN(C)c1ccc2cc3ccc(N(C)C)c(/C=C(\C#N)C(=O)O)c3nc2c1 [acridine-based rotor]
Fluorescence change when p53 is added to DNA-bound rotor [1]: decreased fluorescence signal; also recorded: fluorescence intensity dropped | Rotor:DNA ratio at saturation of fluorescence intensity [2]: 0.5 × rotor

N#C/C(=C\c1cc2c3c(c1)CCCN3CCC2)C(=O)OCCNC(=O)CCCCC1SCC2NC(=O)NC21 (centres unmarked) [biotin-rotor probe]
Fluorescence increase on addition of streptavidin (streptavidin; 40 μM conjugate, 50 μg streptavidin, 15 min): 2 fold

C[n+]1ccc(/C=C/c2ccc3c(c2)c2cc(/C=C/c4cc[n+](C)cc4)ccc2n3-c2ccccc2)cc1 [carbazole-based (2-arm) rotor, 4,4′-((1E,1′E)-(9-phenyl-9H-carbazole-3,6-diyl)bis(ethene-2,1-diyl))bis(1-methylpyridin-1-ium)]
Fluorescence change when p53 is added to DNA-bound rotor [1]: turn-off effect | Rotor:DNA ratio at saturation of fluorescence intensity [2]: 15 × rotor

MPRFMDYWEGLSK [JP1]
Kd (MDM2): 18.8 ± 5.03 nM

C[n+]1c(/C=C2/C=CN(CCCN)c3ccccc32)sc2ccccc21 [thiazole-based rotor]
Rotor:DNA ratio at saturation of fluorescence intensity [2]: 15 × rotor

C[n+]1ccc(/C=C/c2ccc(-n3c4ccc(/C=C/c5cc[n+](C)cc5)cc4c4cc(/C=C/c5cc[n+](C)cc5)ccc43)cc2)cc1 [carbazole-based (3-arm) rotor, 4,4′-((1E,1′E)-(9-(4-((E)-2-(1-methylpyridin-1-ium-4-yl)vinyl)phenyl)-9H-carbazole-3,6-diyl)bis(ethene-2,1-diyl))bis(1-methylpyridin-1-ium)]
Rotor:DNA ratio at saturation of fluorescence intensity [2]: 15 × rotor

N#C/C(=C\c1ccc2ccc3cccc4ccc1c2c34)C(=O)O [pyrene-based molecular rotor]
Fluorescence change on binding to streptavidin (streptavidin; FIG. 4b): fluorescence increase

N#C/C(=C\c1cc2c3c(c1)CCCN3CCC2)C(=O)O [CCVJ, 9-(2-carboxy-2-cyanovinyl) julolidine]
Fluorescence signal with plasmid DNA (plasmid DNA): weak signal
